SMILES strings stand for the structures.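 Step 1: Grow cells in 96-well plates. Step 2: Expose to compound for 48 hours at 5 concentrations. Step 3: Interpolate endpoints linearly; if unreached, use highest concentration. GI50 = concentration required for 50% inhibition of growth. Definition used: TGI = concentration required for complete inhibition of growth.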 A value given as a limit tells only on which side of the number the result lay.

Some test systems named below: EKVX NSCLC; KM12 colon; COLO 205 colon; HCC-2998 colon; ACHN renal; NCI-H460 lung; NCI-H522 lung; K-562 leukemia; SN12C renal; UACC-62 melanoma.
Common to all, as to assay: DTP human tumour cell line panel, 48 h

As to `Cc1cc(Nc2cc(N)ncn2)c(=O)n2c1C(=O)NC21CCCCC1`, the GI50 was greater than 100 µM in the experiment on EKVX NSCLC; greater than 100 µM in the experiment on KM12 colon; greater than 100 µM with COLO 205 colon; greater than 100 µM in the experiment with HCC-2998 colon; 25.3 µM in the experiment on ACHN renal; greater than 100 µM in the experiment with NCI-H460 lung. In addition, the GI50 with NCI-H522 lung, in the experiment on K-562 leukemia, in the experiment with SN12C renal and in the experiment on UACC-62 melanoma was greater than 100 µM throughout. Also, the TGI in the experiment with EKVX NSCLC, in the experiment with KM12 colon, in the experiment on COLO 205 colon, with HCC-2998 colon, in the experiment on ACHN renal and with NCI-H460 lung was greater than 100 µM in each case. In addition, the TGI in the experiment on NCI-H522 lung, with K-562 leukemia, in the experiment with SN12C renal and in the experiment on UACC-62 melanoma was greater than 100 µM each time.
Regarding `CC(O)c1cc(C(=O)N[C@@H](C)Cn2ccc(-c3ccc(C#N)c(Cl)c3)n2)n[nH]1` (stereo not given in full), the GI50 in the experiment on EKVX NSCLC is 36.8 µM; with KM12 colon it was 76.7 µM; in the experiment on COLO 205 colon, 54 µM; in the experiment with HCC-2998 colon, greater than 100 µM; in the experiment with ACHN renal it was 82.5 µM; in the experiment on NCI-H460 lung it was greater than 100 µM. Moreover, the GI50 with NCI-H522 lung is 39.4 µM; in the experiment with K-562 leukemia, 0.73 µM; with SN12C renal, 48.7 µM; in the experiment with UACC-62 melanoma, 34.3 µM. The TGI in the experiment with EKVX NSCLC, in the experiment with KM12 colon, in the experiment with COLO 205 colon, with HCC-2998 colon, with ACHN renal and in the experiment on NCI-H460 lung was greater than 100 µM in each case. For the same molecule, the TGI in the experiment with NCI-H522 lung, in the experiment with K-562 leukemia, with SN12C renal and in the experiment with UACC-62 melanoma was greater than 100 µM in each case.
Regarding `O=C1/C(=C/c2ccc(Br)cc2)CCC/C1=C\c1ccc(Br)cc1`, the TGI was determined as 62.5 µM with EKVX NSCLC; 10.9 µM in the experiment with KM12 colon; 28.4 µM in the experiment with COLO 205 colon; 6.48 µM in the experiment on HCC-2998 colon; 29.8 µM with ACHN renal; 28.8 µM in the experiment with NCI-H460 lung. The TGI in the experiment with NCI-H522 lung is 39.2 µM; with K-562 leukemia, 21.2 µM; with SN12C renal, 53 µM; in the experiment on UACC-62 melanoma, 39.9 µM.
For `COC(=O)C(C)NC(=O)c1ccccc1I(OS(=O)(=O)C(F)(F)F)c1ccccc1` (stereo not given), the GI50 is 25.6 µM in the experiment on EKVX NSCLC; 17.7 µM in the experiment with KM12 colon; 23.6 µM with COLO 205 colon; 14.7 µM in the experiment with HCC-2998 colon; 19.2 µM in the experiment with ACHN renal; 20.4 µM with NCI-H460 lung. Besides, the GI50 in the experiment with NCI-H522 lung is 23.9 µM; with K-562 leukemia it was greater than 42.4 µM; in the experiment with SN12C renal, 15.4 µM; with UACC-62 melanoma, 17.3 µM. For the same molecule, the TGI in the experiment on EKVX NSCLC amounted to 88.9 µM; in the experiment with KM12 colon it was 38.7 µM; with COLO 205 colon, 45.9 µM; with HCC-2998 colon, 32.3 µM; with ACHN renal it was 36.4 µM; with NCI-H460 lung it was 59.1 µM. The TGI with NCI-H522 lung was 64.9 µM; in the experiment with K-562 leukemia, greater than 63.7 µM; in the experiment with SN12C renal it was 32.4 µM; with UACC-62 melanoma, 35 µM.
Regarding `CN(C)CCCn1c(-c2nonc2N)nc2cnccc21`, the GI50 with EKVX NSCLC, in the experiment on KM12 colon, in the experiment with COLO 205 colon, in the experiment with HCC-2998 colon, in the experiment on ACHN renal and with NCI-H460 lung was greater than 25 µM throughout. The GI50 in the experiment on NCI-H522 lung, with K-562 leukemia, in the experiment on SN12C renal and in the experiment with UACC-62 melanoma was greater than 25 µM throughout. The TGI in the experiment on EKVX NSCLC, with KM12 colon, with COLO 205 colon, in the experiment on HCC-2998 colon, with ACHN renal and with NCI-H460 lung was greater than 25 µM each time. Besides, the TGI with NCI-H522 lung, in the experiment on K-562 leukemia, in the experiment on SN12C renal and with UACC-62 melanoma was greater than 25 µM in each case.
For the molecule `C=CC(COC(c1ccccc1)(c1ccccc1)c1ccccc1)N(CC)CC` (stereo not given), the GI50 is 4.48 µM in the experiment with EKVX NSCLC; 4.33 µM in the experiment with KM12 colon; 1.7 µM in the experiment with COLO 205 colon; 4.28 µM with HCC-2998 colon; 8.1 µM in the experiment with ACHN renal; 2.5 µM with NCI-H460 lung. Further, the GI50 was 4.18 µM with NCI-H522 lung, 2.07 µM with K-562 leukemia, 7.97 µM in the experiment on SN12C renal and 3.61 µM in the experiment with UACC-62 melanoma. The TGI was 19.2 µM in the experiment on EKVX NSCLC; 14.8 µM with KM12 colon; 3.4 µM in the experiment with COLO 205 colon; 16.4 µM in the experiment on HCC-2998 colon; 23.9 µM with ACHN renal; 6.58 µM with NCI-H460 lung. In addition, the concentration for total growth inhibition (TGI) with NCI-H522 lung amounted to 15.2 µM; in the experiment with K-562 leukemia, 5.86 µM; in the experiment on SN12C renal, 24.5 µM; with UACC-62 melanoma, 12.5 µM.
For the molecule `Oc1ccc(N=Nc2ccccn2)c(O)c1`, the GI50 in the experiment on EKVX NSCLC is 0.407 µM; in the experiment on KM12 colon, 0.699 µM; in the experiment with COLO 205 colon, 0.732 µM; in the experiment with HCC-2998 colon, 0.49 µM; in the experiment with ACHN renal it was 0.507 µM; with NCI-H460 lung, 0.543 µM. The GI50 in the experiment with NCI-H522 lung is 2.68 µM; with K-562 leukemia it was 0.582 µM; with SN12C renal, 1.91 µM; with UACC-62 melanoma it was 0.576 µM. Further, the TGI in the experiment on EKVX NSCLC, with KM12 colon, with COLO 205 colon, in the experiment on HCC-2998 colon, in the experiment with ACHN renal and in the experiment on NCI-H460 lung was greater than 100 µM throughout. For the same molecule, the TGI is greater than 100 µM in the experiment with NCI-H522 lung, greater than 100 µM in the experiment on K-562 leukemia, greater than 100 µM with SN12C renal and 58.2 µM with UACC-62 melanoma.
`CCCCCCCCCCC(C)CCCCCCC(=O)O` (stereo not given): the TGI in the experiment with EKVX NSCLC, in the experiment on KM12 colon, in the experiment on COLO 205 colon, in the experiment on HCC-2998 colon, in the experiment on ACHN renal and in the experiment with NCI-H460 lung was greater than 100 µM throughout. Moreover, the TGI in the experiment with NCI-H522 lung, with K-562 leukemia, with SN12C renal and in the experiment on UACC-62 melanoma was greater than 100 µM in each case.

The values are drawn from PubChem BioAssay (NCI).
